Assay: xn = mol fraction of the nth substance listed
Settings: 318.15 K, Liquid, Vibrating tube method

CCC(=O)c1ccccc1 [ethyl phenyl ketone] + Cc1ccccc1
mass density [kg/m3]
Settings | x2 = 0 | x2 = 0.1048 | x2 = 0.2025 | x2 = 0.3006 | x2 = 0.3991 | x2 = 0.4998 | x2 = 0.6004 | x2 = 0.7036 | x2 = 0.8028 | x2 = 0.902
100 kPa | 988.3 | 976.2 | 965 | 952.8 | 940 | 926.14 | 911.27 | 895.5 | 879.2 | 861.9
2130 kPa | 989.6 | 977.6 | 966.4 | 954.3 | 941.4 | 927.61 | 912.78 | 897 | 880.8 | 863.6
4150 kPa | 990.9 | 978.9 | 967.7 | 955.6 | 942.8 | 929.03 | 914.26 | 898.5 | 882.4 | 865.2
6180 kPa | 992.1 | 980.1 | 969 | 956.9 | 944.1 | 930.44 | 915.7 | 900 | 883.9 | 866.8
8210 kPa | 993.3 | 981.4 | 970.2 | 958.2 | 945.5 | 931.83 | 917.14 | 901.5 | 885.4 | 868.4
10230 kPa | 994.6 | 982.7 | 971.5 | 959.5 | 946.8 | 933.2 | 918.57 | 903 | 886.9 | 870
11250 kPa | 995.2 | 983.3 | 972.1 | 960.1 | 947.5 | 933.86 | 919.25 | 903.7 | 887.7 | 870.7
12260 kPa | 995.8 | 983.9 | 972.8 | 960.8 | 948.1 | 934.53 | 919.93 | 904.4 | 888.4 | 871.5
14290 kPa | 997 | 985.1 | 974 | 962 | 949.4 | 935.85 | 921.32 | 905.8 | 889.8 | 873
16310 kPa | 998.1 | 986.3 | 975.2 | 963.3 | 950.7 | 937.19 | 922.68 | 907.2 | 891.3 | 874.5
18340 kPa | 999.3 | 987.5 | 976.4 | 964.5 | 952 | 938.52 | 924.03 | 908.6 | 892.7 | 876
20370 kPa | 1000.4 | 988.7 | 977.6 | 965.7 | 953.2 | 939.75 | 925.33 | 909.9 | 894.1 | 877.4
22390 kPa | 1001.6 | 989.9 | 978.8 | 967 | 954.5 | 941.04 | 926.66 | 911.2 | 895.5 | 878.9
24420 kPa | 1002.7 | 991 | 980 | 968.1 | 955.7 | 942.28 | 927.93 | 912.5 | 896.8 | 880.3
26450 kPa | 1003.8 | 992.1 | 981.1 | 969.3 | 956.8 | 943.5 | 929.18 | 913.8 | 898.2 | 881.6
28470 kPa | 1004.9 | 993.3 | 982.2 | 970.5 | 958 | 944.7 | 930.43 | 915.1 | 899.5 | 883
29490 kPa | 1005.5 | 993.8 | 982.8 | 971.1 | 958.6 | 945.34 | 931.09 | 915.7 | 900.1 | 883.7
30500 kPa | 1006 | 994.4 | 983.4 | 971.6 | 959.2 | 945.93 | 931.69 | 916.4 | 900.8 | 884.3
32530 kPa | 1007.1 | 995.5 | 984.5 | 972.8 | 960.4 | 947.12 | 932.92 | 917.6 | 902.1 | 885.7
34550 kPa | 1008.2 | 996.6 | 985.6 | 973.9 | 961.5 | 948.29 | 934.11 | 918.8 | 903.3 | 887
36580 kPa | 1009.2 | 997.7 | 986.7 | 975 | 962.7 | 949.45 | 935.3 | 920 | 904.6 | 888.3
38600 kPa | 1010.3 | 998.7 | 987.8 | 976.1 | 963.7 | 950.58 | 936.48 | 921.2 | 905.8 | 889.5
39620 kPa | 1010.8 | 999.3 | 988.3 | 976.6 | 964.3 | 951.19 | 937.08 | 921.9 | 906.4 | 890.2
